Patent US20110046173A1 (priority 2009, published 2011)

Legend:
[1] = system: analgesia; details: mouse, in vivo; cited from earlier work
[2] = system: acute pain, bunionectomy; assay: Efficacy (SPID48) of 3 to 2 product vs morphine vs oxycodone, bunionectomy study (Example 2); type: in vivo, human; details: for Mean SPID48 Score: 48 hr; for pain control by SPID48 (judged analgesic dose): low doses alone: morphine 6 mg, oxycodone 4 mg

CCC(=O)C(C[C@@H](C)N(C)C)(c1ccccc1)c1ccccc1 [L-methadone]
interaction with morphine, morphine-6-β-glucuronide, codeine, and 6-acetylmorphine [1]: exhibited synergy

CN1CC[C@]23c4c5ccc(O)c4O[C@H]2[C@@H](O)C=C[C@H]3[C@H]1C5 [Morphine, morphine]
Mean SPID48 Score ([2]; 6 mg q6h): 51 | Mean SPID48 Score ([2]; 12 mg q6h): 106 | pain control by SPID48 (judged analgesic dose) [2]: gave pain control

COc1ccc2c3c1O[C@H]1C(=O)CC[C@@]4(O)[C@@H](C2)N(C)CC[C@]314 [Oxycodone, oxycodone]
Mean SPID48 Score ([2]; 4 mg q6h): 60 | Mean SPID48 Score ([2]; 8 mg q6h): 99 | pain control by SPID48 (judged analgesic dose) [2]: gave pain control
